Tests used:
Assay type in all cases: in vivo
barnyardgrass (Ec) [1] = assay: Test Example 3: herbicidal effects by upland field foliage treatment; design: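 grade of growth control; 5 = at least 90%; 4 = 70 to 90%; 3 = 50 to 70%; 2 = 30 to 50%; 1 = 10 to 30%; 0 = under 10%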; details: 100 g of the active ingredient per 10 ares, evaluated on the 14th day after treatment
Experimental: (§1) (Test on Herbicidal Effects by Upland Field Foliage Treatment)
(§2) In a plastic pot (surface area: 120 cm^2) filled with sand, barnyardgrass (Ec), Diaitaria ciliaris (Di), pale smartweed (Po), slender amaranth (Am), common lambsquarters (Ch) and rice flatsedge (Ci) were sown and covered with soil and were cultured in a green house for 2 weeks. […] The plants were then cultured in the green house, and the evaluation of the herbicidal effects was conducted on the 14th day after the treatment in accordance with the standards as identified in Table 47. Symbol—represents “not tested”.

rice flatsedge (Ci) = assay: as above; design: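 grade of growth control; 5 = at least 90%; 4 = 70 to 90%; 3 = 50 to 70%; 2 = 30 to 50%; 1 = 10 to 30%; 0 = under 10%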; details: 100 g of the active ingredient per 10 ares, evaluated on the 14th day after treatment
Experimental: as §1, §2

slender amaranth (Am) = assay: as above; design: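 grade of growth control; 5 = at least 90%; 4 = 70 to 90%; 3 = 50 to 70%; 2 = 30 to 50%; 1 = 10 to 30%; 0 = under 10%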; details: 100 g of the active ingredient per 10 ares, evaluated on the 14th day after treatment
Experimental: as §1, §2

pale smartweed (Po) = assay: as above; design: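 grade of growth control; 5 = at least 90%; 4 = 70 to 90%; 3 = 50 to 70%; 2 = 30 to 50%; 1 = 10 to 30%; 0 = under 10%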; details: 100 g of the active ingredient per 10 ares, evaluated on the 14th day after treatment
Experimental: as §1, §2

Diaitaria ciliaris (Di) = assay: as above; design: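 grade of growth control; 5 = at least 90%; 4 = 70 to 90%; 3 = 50 to 70%; 2 = 30 to 50%; 1 = 10 to 30%; 0 = under 10%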; details: 100 g of the active ingredient per 10 ares, evaluated on the 14th day after treatment
Experimental: as §1, §2

[2] = test system: common lambsquarters (Ch); assay: as above; design: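 grade of growth control; 5 = at least 90%; 4 = 70 to 90%; 3 = 50 to 70%; 2 = 30 to 50%; 1 = 10 to 30%; 0 = under 10%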; details: 100 g of the active ingredient per 10 ares, evaluated on the 14th day after treatment
Experimental: as §1, §2

barnyardgrass (Ec) [3] = assay: Test Example 1: herbicidal effects by paddy field soil treatment; details: 100 g of the active ingredient per 10 ares, 21st day after the application, index 0-5 of Table 47;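 further: grade of growth control; 5 = at least 90%; 4 = 70 to 90%; 3 = 50 to 70%; 2 = 30 to 50%; 1 = 10 to 30%; 0 = under 10%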
Experimental: (§3) (Test on Herbicidal Effects by Paddy Field Soil Treatment)
(§4) In a plastic pot (surface area: 100 cm^2) filled with paddy field soil, barnyardgrass (Ec), monochoria (Mo) and bulrush (Sc) were sown after puddling and leveling, and flooded to a water depth of 3 cm. […] The dose was 100 g of the active ingredient per 10 ares. The plants were then cultured in a green house, and the evaluation of the herbicidal effects was conducted on the 21st day after the application in accordance with the standards as identified in Table 47.

monochoria (Mo) = assay: as above; details: 100 g of the active ingredient per 10 ares, 21st day after the application, index 0-5 of Table 47;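 further: grade of growth control; 5 = at least 90%; 4 = 70 to 90%; 3 = 50 to 70%; 2 = 30 to 50%; 1 = 10 to 30%; 0 = under 10%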
Experimental: as §3, §4

bulrush (Sc) = assay: as above; details: 100 g of the active ingredient per 10 ares, 21st day after the application, index 0-5 of Table 47;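 further: grade of growth control; 5 = at least 90%; 4 = 70 to 90%; 3 = 50 to 70%; 2 = 30 to 50%; 1 = 10 to 30%; 0 = under 10%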
Experimental: as §3, §4

Structure (SMILES) | Herbicidal effects Ec (barnyardgrass (Ec) [1]) | Herbicidal effects Ci (rice flatsedge (Ci)) | Herbicidal effects Am (slender amaranth (Am)) | Herbicidal effects Po (pale smartweed (Po)) | Herbicidal effects Di (Diaitaria ciliaris (Di)) | Herbicidal effects Ch [2] | Herbicidal effects Ec (barnyardgrass (Ec) [3]) | Herbicidal effects Mo (monochoria (Mo)) | Herbicidal effects Sc (bulrush (Sc))
CCCC(Sc1cc(-c2ccc(C(F)(F)F)n(C)c2=O)ccc1Cl)C(=O)OCC (racemic) [1-116] | 4 | 5 | 5 | 5 | 4 | 5 | – | – | –
CCOC(=O)C(C)Sc1cc(-c2ccc(C(F)(F)F)n(C)c2=O)c(Cl)cc1Cl (racemic) [1-124] | 5 | 5 | 5 | 5 | 5 | 5 | 5 | 5 | 5
Cn1c(C(F)(F)F)ccc(-c2cc(OCc3ccccc3)c(Cl)cc2F)c1=O [1-23] | – | – | – | – | – | – | 5 | 5 | 5
CCOC(=O)COc1cc(-c2ccc(C(F)(F)F)n(C)c2=O)c(Cl)cc1Cl [1-33] | 5 | 5 | 5 | 4 | 4 | 5 | 5 | 5 | 5
Cn1c(C(F)(F)F)ccc(-c2cc(Oc3ccccc3)c(Cl)cc2Cl)c1=O [1-36] | – | – | – | – | – | – | 5 | 5 | 5
Cn1c(C(F)(F)F)ccc(-c2cc(OC3CCCC3)c(Cl)cc2Cl)c1=O [1-40] | – | – | – | – | – | – | 5 | 5 | 5
CCOC(=O)CSc1cc(-c2ccc(C(F)(F)F)n(C)c2=O)c(F)cc1Cl [1-45] | 5 | 5 | 5 | 5 | 5 | 5 | 5 | 5 | 5
COC(=O)CSc1cc(-c2ccc(C(F)(F)F)n(C)c2=O)c(F)cc1Cl [1-46] | 5 | 5 | 5 | 5 | 5 | 5 | 5 | 5 | 5
Cn1c(C(F)(F)F)ccc(-c2cc(SCC(=O)OC3CCCC3)c(Cl)cc2F)c1=O [1-47] | – | – | – | – | – | – | 5 | 5 | 5
COCCOC(=O)CSc1cc(-c2ccc(C(F)(F)F)n(C)c2=O)c(F)cc1Cl [1-49] | 5 | 5 | 5 | 5 | 5 | 5 | 5 | 5 | 5
CCOC(=O)CSc1cc(-c2ccc(C(F)(F)F)n(C)c2=O)c(Cl)cc1Cl [1-53] | – | – | – | – | – | – | 5 | 5 | 5
COC(=O)CSc1cc(-c2ccc(C(F)(F)F)n(C)c2=O)c(Cl)cc1Cl [1-54] | 5 | 5 | 5 | 4 | 5 | 5 | 5 | 5 | 5
CCOC(=O)CNc1cc(-c2ccc(C(F)(F)F)n(C)c2=O)c(F)cc1Cl [1-63] | 5 | 5 | 5 | 5 | 5 | 5 | – | – | –
Cn1c(C(F)(F)F)ccc(-c2cc(NS(C)(=O)=O)c(Cl)cc2Cl)c1=O [1-75] | – | – | – | – | – | – | 5 | 5 | 5
Cc1cc(-c2ccc(Cl)cc2Cl)c(=O)[nH]c1C(F)(F)F [1-97] | – | – | – | – | – | – | 5 | 5 | 5
CCOC(=O)COc1cc(-c2ccc(C(F)(F)F)n(C)c2=O)ccc1Cl [1-107] | – | – | – | – | – | – | 5 | 5 | 5
Cn1c(C(F)(F)F)ccc(-c2ccc(Cl)c(SCC(=O)OC3CCCC3)c2)c1=O [1-115] | – | – | – | – | – | – | 5 | 5 | 5
Cn1c(C(F)(F)F)ccc(-c2cc(SC3CCCC3)c(Cl)cc2Cl)c1=O [1-128] | – | – | – | – | – | – | 5 | 5 | 4
CC(C)OCCOC(=O)CSc1cc(-c2ccc(C(F)(F)F)n(C)c2=O)c(Cl)cc1Cl [1-129] | 5 | 5 | 5 | 5 | 5 | 5 | – | – | –
CCCOC(=O)CSc1cc(-c2ccc(C(F)(F)F)n(C)c2=O)c(Cl)cc1Cl [1-130] | – | – | – | – | – | – | 5 | 5 | 5
Cn1c(C(F)(F)F)ccc(-c2cc(C(=O)NS(C)(=O)=O)c(Cl)cc2F)c1=O [1-147] | – | – | – | – | – | – | 5 | 5 | 5
COC(=O)Oc1cc(-c2ccc(C(F)(F)F)n(C)c2=O)c(F)cc1Cl [1-153] | – | – | – | – | – | – | 5 | 5 | 5
Cn1c(C(F)(F)F)ccc(-c2ccc3c(c2)NC(=O)CO3)c1=O [2-30] | – | – | – | – | – | – | 5 | 5 | 5
Cn1c(C(F)(F)F)ccc(-c2cc(OC3CCCO3)c(Cl)cc2Cl)c1=O (stereo not drawn) [Compound 1-212] | – | – | – | – | – | – | 5 | 5 | 4
Cn1c(C(F)(F)F)ccc(-c2cc3c(cc2F)OCC(=O)N3CC2CO2)c1=O (stereo not drawn) [Compound 2-20] | – | – | – | – | – | – | 5 | 5 | 5
Cn1cc(-c2ccc(Cl)cc2)c(=O)cc1C(F)(F)F [Compound 6-1] | – | – | – | – | – | – | 5 | 5 | 5
CCOC(=O)C(Cl)Cc1cc(-c2ccc(C(F)(F)F)n(C)c2=O)c(F)cc1Cl (stereo not drawn) [Compound No. 1-139, ethyl 2-chloro-3-[2-chloro-4-fluoro-5-(1methyl-6-trifluoromethyl-2(1H)pyridon-3-yl)]phenyl propionate] | 5 | 5 | 5 | 5 | 5 | 5 | – | – | –
